Drawing on US20040014683A1, “Sugar-derived gellant for hydrogel formation” (priority 2001, published 2004), this text covers hydrated gel formation for 2 substances.

The nature of the data set: Gel-forming ability test (heat to dissolve, cool to 25° C.). The format is physicochemical. Particulars: 1 mg gelatinizer in water (900 mg) and methanol (100 mg); heated, gradually cooled, left at room temperature approximately 2-5 hours; tube inverted. Here is the method: The dodecanoylaminophenol-β-D-glucopyranoside and dodecanoylaminophenol-β-D-galactopyranoside (1 mg of each) obtained in the above experiments were respectively weighed out into test tubes, and a mixed solvent of water (900 mg) and methanol (100 mg) was added. The mixture was heated to ensure complete dissolution. Subsequently, it was gradually cooled, and left at room temperature for approximately 2-5 hours.
The gel-forming ability was evaluated as follows.
The solvent was water (including a small amount of methanol and ethanol), methanol, ethanol, 1-butanol, t-butanol, tetrahydrofuran, chloroform, dichloromethane, n-hexane, ethyl acetate, dimethylformamide or dimethyl sulfoxide.
One of the aforesaid solvents was mixed in a test tube wherein the two types of gelatinizer prepared in the Examples were sealed such that the concentration of gelatinizer was 0.1-3.0 wt %, and this mixture was heated until the solids dissolved. The resulting solution was cooled to 25° C. for one hour. The gelatinizer and solvent were introduced into a test tube capped by a diaphragm, and heated in the oil bath until the solids dissolved. This solution was cooled to 25° C.

As to “dodecanoylaminophenol-β-D-galactopyranoside”, the hydrated gel formation result was “hydrated gel which did not collapse even when inverted”.

Regarding “dodecanoylaminophenol-β-D-glucopyranoside”, the hydrated gel formation result was “hydrated gel which did not collapse even when inverted”.
